pIC50: −log10 of the molar value.
Molecular target: human autotaxin (ATX) (Homo sapiens (Human), UniProt Q13822)
Assay: Human autotaxin assay (choline release from LPC, Hep3B conditioned media)
Type: biochemical
Conditions: concentrated conditioned media from Hep3B cells, LPC substrate
Experimental: ATX activity is assayed in concentrated conditioned media from Hep3B human hepatocellular carcinoma cells by measuring the amount of choline released from the substrate, lysophosphatidylcholine (LPC) as it is cleaved to LPA. Conditioned media is collected from confluent Hep3B cells and concentrated 20-fold using Centriprep-30 filter devices (Millipore). […] 100 μl of a color mix containing 4.5 mM 4-aminoantipyrine, 2.7 mM N-ethyl-N-(2-hydroxy-3-sulfopropyl)-m-toluidine, 21 units/ml horseradish peroxidase and 3 units/ml choline oxidase in 50 mM Tris, pH 8, 4.5 mM MgCl2 is added and the incubation continued for 15 minutes at room temperature before reading the absorbance at 555 nm.

**Q.** O=C(O)CCCN1C(=O)C2Cc3c(n(CCCc4ccccc4)c4ccccc34)CN2C1=O (racemic) [Compound 1-7, 4-(1,3-dioxo-6-(3-phenylpropyl)-11,11a-dihydro-1H-imidazo[1′,5′:1,6]pyrido[3,4-b]indol-2(3H,5H,6H)-yl)butanoic acid] was tested. Which pIC50 did it give?
**A.** The pIC50 was > 6.30.

**Q.** With O=C1NCC2Cc3c(n(Cc4ccc(F)cc4)c4ccccc34)CN12 (racemic) [Compound 1-13, 6-(4-fluorobenzyl)-5,6,11,11a-tetrahydro-1H-imidazo[1′,5′:1,6]pyrido[3,4-b]indol-3(2H)-one] as the compound, how does the pIC50 read?
**A.** Its pIC50 is > 6.30.

**Q.** How did the pIC50 turn out when CN1CC2Cc3c(n(Cc4ccc(F)cc4)c4ccccc34)CN2C1=O (racemic) [Compound 1-14, 6-(4-fluorobenzyl)-2-methyl-5,6,11,11a-tetrahydro-1H-imidazo[1′,5′:1,6]pyrido[3,4-b]indol-3(2H)-one] was run?
**A.** The pIC50 was > 6.30.

**Q.** O=C1NCC(=O)N2Cc3c(c4ccccc4n3Cc3ccc(F)cc3)CC12 (racemic) [Compound 1-16, 7-(4-fluorobenzyl)-2,3,6,7,12,12a-hexahydropyrazino[1′,2′:1,6]pyrido[3,4-b]indole-1,4-dione] was tested. Which pIC50 did it give?
**A.** The pIC50 was > 6.30.

**Q.** O=C(O)CN1CC2Cc3c(n(Cc4ccc(F)cc4)c4ccccc34)CN2C1=O (racemic) [Compound 1-20, 2-(6-(4-fluorobenzyl)-3-oxo-11,11a-dihydro-1H-imidazo[1′,5′:1,6]pyrido[3,4-b]indol-2(3H,5H,6H)-yl)acetic acid] was tested. Which pIC50 did it give?
**A.** Its pIC50 is 6.00 to 6.30.

**Q.** With O=C(O)CN1CC(=O)N2Cc3c(c4ccccc4n3Cc3ccc(F)cc3)CC2C1=O (racemic) [Compound 1-23, 2-(7-(4-fluorobenzyl)-1,4-dioxo-3,4,6,7,12,12a-hexahydropyrazino[1′,2′:1,6]pyrido[3,4-b]indol-2(1H)-yl)acetic acid] as the compound, how does the pIC50 read?
**A.** The pIC50 was > 6.30.

**Q.** With CN1C(=O)C2Cc3c(n(Cc4ccc(F)cc4)c4ccccc34)CN2C1=O (racemic) [Compound 1-129, 6-(4-fluorobenzyl)-2-methyl-5,6,11,11a-tetrahydro-1H-imidazo[1′,5′:1,6]pyrido[3,4-b]indole-1,3(2H)-dione] as the compound, how does the pIC50 read?
**A.** Its pIC50 is > 6.30.

**Q.** With N#CCN1C(=O)C2Cc3c(n(Cc4ccc(F)cc4)c4ccccc34)CN2C1=O (racemic) [Compound 1-139, 2-(6-(4-fluorobenzyl)-1,3-dioxo-5,6,11,11a-tetrahydro-1H-imidazo[1′,5′:1,6]pyrido[3,4-b]indol-2(3H)-yl)acetonitrile] as the compound, how does the pIC50 read?
**A.** The pIC50 was > 6.30.

**Q.** With O=C1C2Cc3c(n(Cc4ccc(F)cc4)c4ccccc34)CN2C(=O)N1Cc1nn[nH]n1 (racemic) [Compound 1-140, 2-((2H-tetrazol-5-yl)methyl)-6-(4-fluorobenzyl)-5,6,11,11a-tetrahydro-1H-imidazo[1′,5′:1,6]pyrido[3,4-b]indole-1,3(2H)-dione] as the compound, how does the pIC50 read?
**A.** The pIC50 was > 6.30.

**Q.** With CC1(C)c2c(n(Cc3ccc(F)cc3)c3ccccc23)CN2C(=O)NC(=O)C21 (racemic) [Compound A110, 6-(4-fluorobenzyl)-11,11-dimethyl-5,6,11,11a-tetrahydro-1H-imidazo[1′,5′:1,6]pyrido[3,4-b]indole-1,3(2H)-dione] as the compound, how does the pIC50 read?
**A.** The pIC50 was > 6.30.

**Q.** How did the pIC50 turn out when CC1(C)c2c(n(Cc3ccc(F)cc3)c3ccccc23)CN2C(=O)NC(=O)C21 (single isomer, unassigned) [A110 ent A, 6-(4-fluorobenzyl)-11,11-dimethyl-5,6,11,11a-tetrahydro-1H-imidazo[1′,5′:1,6]pyrido[3,4-b]indole-1,3(2H)-dione] was run?
**A.** Its pIC50 is > 6.30.

**Q.** CC1(C)c2c(n(Cc3ccc(F)cc3)c3ccccc23)CN2C(=O)NC(=O)C21 (single isomer, unassigned) [A110 ent B, 6-(4-fluorobenzyl)-11,11-dimethyl-5,6,11,11a-tetrahydro-1H-imidazo[1′,5′:1,6]pyrido[3,4-b]indole-1,3(2H)-dione] was tested. Which pIC50 did it give?
**A.** Its pIC50 is > 6.30.

**Q.** With O=C(O)CCN1C(=O)C2Cc3c(n(Cc4ccc(F)cc4)c4ncccc34)CN2C1=O (single isomer, unassigned; enta) [C114 entA, 3-{8-[(4-fluorophenyl)methyl]-12,14-dioxo-6.8.11.13-tetraazatetracyclo[7.7.0.02, 7.011,15]hexadeca-1(9),2(7),3,5-tetraen-13-yl}propionic acid] as the compound, how does the pIC50 read?
**A.** The pIC50 was > 6.30.

**Q.** How did the pIC50 turn out when O=C(O)CCN1C(=O)C2Cc3c(n(Cc4ccc(F)cc4)c4ncccc34)CN2C1=O (single isomer, unassigned; entb) [C114 entB, 3-{8-[(4-fluorophenyl)methyl]-12,14-dioxo-6.8.11.13-tetraazatetracyclo[7.7.0.02, 7.011,15]hexadeca-1(9),2(7),3,5-tetraen-13-yl}propionic acid] was run?
**A.** Its pIC50 is > 6.30.

**Q.** How did the pIC50 turn out when O=C(O)CCCN1C(=O)[C@@H]2Cc3c(n(Cc4ccc(F)cc4)c4ccccc34)CN2C1=O [Compound 1-2, (S)-4-(6-(4-fluorobenzyl)-1,3-dioxo-11,11a-dihydro-1H-imidazo[1′,5′:1,6]pyrido[3,4-b]indol-2(3H,5H,6H)-yl)butanoic acid] was run?
**A.** Its pIC50 is > 6.30.

**Q.** O=C(O)CCCN1C(=O)[C@H]2Cc3c(n(Cc4ccc(F)cc4)c4ccccc34)CN2C1=O [Compound 1-3, (R)-4-(6-(4-fluorobenzyl)-1,3-dioxo-11,11a-dihydro-1H-imidazo[1′,5′:1,6]pyrido[3,4-b]indol-2(3H,5H,6H)-yl)butanoic acid] was tested. Which pIC50 did it give?
**A.** Its pIC50 is > 6.30.

**Q.** O=C1OCC2Cc3c(n(Cc4ccc(F)cc4)c4ccccc34)CN12 (stereo not drawn) [Compound 1-8, 6-(4-fluorobenzyl)-5,6,11,11a-tetrahydrooxazolo[3′,4′:1,6]pyrido[3,4-b]indol-3(1H)-one] was tested. Which pIC50 did it give?
**A.** Its pIC50 is > 6.30.

**Q.** O=C1OC[C@@H]2Cc3c(n(Cc4ccc(F)cc4)c4ccccc34)CN12 [Compound 1-9, (S)-6-(4-fluorobenzyl)-5,6,11,11a-tetrahydrooxazolo[3′,4′:1,6]pyrido[3,4-b]indol-3(1H)-one] was tested. Which pIC50 did it give?
**A.** The pIC50 was > 6.30.

**Q.** How did the pIC50 turn out when O=C1OC[C@H]2Cc3c(n(Cc4ccc(F)cc4)c4ccccc34)CN12 [Compound 1-10, (R)-6-(4-fluorobenzyl)-5,6,11,11a-tetrahydrooxazolo[3′,4′:1,6]pyrido[3,4-b]indol-3(1H)-one] was run?
**A.** Its pIC50 is < 6.00.

**Q.** With COc1ccc(Cn2c3c(c4ccccc42)C[C@H]2C(=O)N(CCCC(=O)O)C(=O)N2C3)cn1 [Compound 1-11, (S)-4-(6-((6-methoxypyridin-3-yl)methyl)-1,3-dioxo-11,11a-dihydro-1H-imidazo[1′,5′:1,6]pyrido[3,4-b]indol-2(3H,5H,6H)-yl)butanoic acid] as the compound, how does the pIC50 read?
**A.** The pIC50 was > 6.30.

**Q.** COc1ccc(Cn2c3c(c4ccccc42)C[C@H]2C(=O)N(CCC(=O)O)C(=O)N2C3)cn1 [Compound 1-12, (S)-3-(6-((6-methoxypyridin-3-yl)methyl)-1,3-dioxo-11,11a-dihydro-1H-imidazo[1′,5′:1,6]pyrido[3,4-b]indol-2(3H,5H,6H)-yl)propanoic acid] was tested. Which pIC50 did it give?
**A.** The pIC50 was > 6.30.

**Q.** COc1ccc(Cn2c3c(c4ccccc42)C[C@H]2C(=O)N(CC4(C(=O)O)CC4)C(=O)N2C3)cn1 [Compound 1-18, (S)-1-((6-((6-methoxypyridin-3-yl)methyl)-1,3-dioxo-5,6,11,11a-tetrahydro-1H-imidazo[1′,5′:1,6]pyrido[3,4-b]indol-2(3H)-yl)methyl)cyclopropane-1-carboxylic acid] was tested. Which pIC50 did it give?
**A.** Its pIC50 is > 6.30.

**Q.** O=C(O)CN1C(=O)C2Cc3c(n(Cc4ccc(F)cc4)c4ccccc34)CN2C1=O (stereo not drawn) [Compound 1-19, 2-(6-(4-fluorobenzyl)-1,3-dioxo-5,6,11,11a-tetrahydro-1H-imidazo[1′,5′:1,6]pyrido[3,4-b]indol-2(3H)-yl)acetic acid] was tested. Which pIC50 did it give?
**A.** The pIC50 was > 6.30.

**Q.** O=C(O)CCN1CC2Cc3c(n(Cc4ccc(F)cc4)c4ccccc34)CN2C1=O (stereo not drawn) [Compound 1-21, 3-(6-(4-fluorobenzyl)-3-oxo-11,11a-dihydro-1H-imidazo[1′,5′:1,6]pyrido[3,4-b]indol-2(3H,5H,6H)-yl)propanoic acid] was tested. Which pIC50 did it give?
**A.** The pIC50 was > 6.30.

**Q.** O=C(O)CCN1CC(=O)N2Cc3c(c4ccccc4n3Cc3ccc(F)cc3)CC2C1=O (stereo not drawn) [Compound 1-24, 3-(7-(4-fluorobenzyl)-1,4-dioxo-3,4,6,7,12,12a-hexahydropyrazino[1′,2′:1,6]pyrido[3,4-b]indol-2(1H)-yl)propanoic acid] was tested. Which pIC50 did it give?
**A.** Its pIC50 is > 6.30.

**Q.** How did the pIC50 turn out when O=C1NC(=O)N2Cc3c(c4ccc(Cl)cc4n3Cc3ccc(F)cc3)C[C@@H]12 [Compound 1-26, (S)-8-chloro-6-(4-fluorobenzyl)-5,6,11,11a-tetrahydro-1H-imidazo[1′,5′:1,6]pyrido[3,4-b]indole-1,3(2H)-dione] was run?
**A.** The pIC50 was < 6.00.

**Q.** O=C(O)CCCN1C(=O)[C@@H]2Cc3c(n(Cc4ccc(F)cc4)c4cc(Cl)ccc34)CN2C1=O [Compound 1-27, (S)-4-(8-chloro-6-(4-fluorobenzyl)-1,3-dioxo-5,6,11,11a-tetrahydro-1H-imidazo[1′,5′:1,6]pyrido[3,4-b]indol-2(3H)-yl)butanoic acid] was tested. Which pIC50 did it give?
**A.** The pIC50 was < 6.00.

**Q.** CC(C)(CN1C(=O)[C@@H]2Cc3c(n(Cc4ccc(F)cc4)c4ccccc34)CN2C1=O)C(=O)O [Compound 1-30, (S)-3-(6-(4-fluorobenzyl)-1,3-dioxo-5,6,11,11a-tetrahydro-1H-imidazo[1′,5′:1,6]pyrido[3,4-b]indol-2(3H)-yl)-2,2-dimethylpropanoic acid] was tested. Which pIC50 did it give?
**A.** Its pIC50 is > 6.30.

**Q.** How did the pIC50 turn out when O=C1[C@@H]2Cc3c(n(Cc4ccc(F)cc4)c4ccccc34)CN2C(=O)N1CC1(C(=O)O)CC1 [Compound 1-34, (S)-1-((6-(4-fluorobenzyl)-1,3-dioxo-5,6,11,11a-tetrahydro-1H-imidazo[1′,5′:1,6]pyrido[3,4-b]indol-2(3H)-yl)methyl)cyclopropane-1-carboxylic acid] was run?
**A.** The pIC50 was > 6.30.

**Q.** How did the pIC50 turn out when CC(C)(CCN1C(=O)[C@@H]2Cc3c(n(Cc4ccc(F)cc4)c4ccccc34)CN2C1=O)C(=O)O [Compound 1-39, (S)-4-(6-(4-fluorobenzyl)-1,3-dioxo-5,6,11,11a-tetrahydro-1H-imidazo[1′,5′:1,6]pyrido[3,4-b]indol-2(3H)-yl)-2,2-dimethylbutanoic acid] was run?
**A.** The pIC50 was > 6.30.
